Measured values as given in patent US12606538B2, “Benzo[b]selenophene sting regulator, preparation method and use thereof” (CHINA PHARMACEUTICAL UNIVERSITY, priority 2021, dated 2026).
Converted amounts (≈) assume the structure as drawn. Read-outs that look alike come from different tables or passages of the source.

Columns and labels:
THP1 cells [1] = assay: THP1 cell growth inhibition activity; type: cell-based
Description: (§1) The test result was shown in the following table, with MSA2 (Science. 2020, 369, eaba6098) as a reference compound.

[2] = Stability of rat liver microsome within 2 h; type: in vitro ADME
Description: as §1

LogP = type: physicochemical
Description: as §1

THP1-dual cells = assay: Luciferase assay based on THP1-dual cells; type: cell-based; details: final concentration of compound 10 μL (so in the source), 24 h at 37° C.
Description: (§2) THP1-dual™ (Invivogen: thpd-nfis) cells or RAW-Lucia™ (Invivogen: rawl-isg) cells were diluted using a culture medium, and 180 μL of cell suspension was sucked and inoculated in a 96-well plate, such that each well contain 1×10^5 cells. 20 μL of a compound to be tested was added into the 96-well plate (the final concentration of said compound was […], and the final volume of each well was […]) and cultured at 37° C. for 24 h. 10 μL of supernatant was sucked into a new 96-well white plate, and 50 μL of a QUANT-Luc reagent was added. After full and even mixing, a microplate reader was used immediately for determination. There were three repeated wells set in the assay. The test result was represented as agitation fold and calculated by (test well−blank well)/(negative well−blank well). The test result was in the following tablet, with 2′,3′-cGAMP as a positive control, where *** represented an agitation fold of 20 or more, ** represented an agitation fold of 10 to 20, and * represented an agitation fold of 1 to 10.

[3] = Stability of human plasma within 24 h; type: in vitro ADME
Description: as §1

THP1 cells [4] = assay: Interferon β induction assay based on THP1 cells (ELISA); type: cell-based; details: Homo sapiens, THP-1, compound 20 μM, 3.5 h, read-out: Secretion of IFNβ in THP1 cells, effect relative to 2′,3′-cGAMP at 20 μM (%)
Description: Secreted cytokine IFNβ was determined by ELISA. THP1 cells were inoculated in a 96-well plate (there was no serum contained in an RPMI 1640 medium), such that the number of cells in each well ranged from 5×10^5 to 7×10^5. A DMSO stock solution of 10 mM was prepared from a compound to be tested, diluted with a culture medium to a target concentration to be added into the 96-well plate containing cells (the final concentration of said compound was 20 μM, and the final volume of each well was 200 μL), and cultured at 37° C. in 5% CO2 for 3.5 h. The cells were collected at 4° C. and centrifuged at 1,000 rpm for 20 mins, and supernate was collected for ELISA determination. There were three repeated wells set in the assay. The result was shown in the following tablet, with 2′,3′-cGAMP as a positive control, where the test result was represented as a percentage of activity relative to 2′,3′-cGAMP at a concentration of 20 μM.

RAW-Lucia cells = assay: Luciferase assay based on RAW-Lucia cells; type: cell-based; details: 24 h at 37° C.
Description: as §2

Water solubility = type: physicochemical
Description: as §1

[5] = stability of rat liver microsome within 2 h
[6] = stability of human plasma within 24 h
[7] = PBS, aqueous buffer, read-out: water solubility, PBS
[8] = water, read-out: water solubility, Water

Row | SMILES | Agitation activity in luciferase assay, THP1-dual (agitation fold) (THP1-dual cells) | Emax at 20 µM (THP1 cells [4]) | Agitation activity in luciferase assay, RAW-Lucia (agitation fold) (RAW-Lucia cells) | further results
1 | COc1cc2cc(C(=O)CCC(=O)O)[se]c2cc1OC [I-1, 4-(5,6-dimethoxybenzo[b]selenophene-2-yl)-4-oxobutanoic acid] | *** (*** represented an agitation fold of 20 or more) | 259% | *** (*** represented an agitation fold of 20 or more) | IC50 (THP1 cells [1]; Homo sapiens, THP-1): > 100 µM; RLM @ 2 h (%) [2, 5]: >90%; logP (LogP; read-out: LogP): 2.5; hPlasma @ 24 h (%) [3, 6]: >90%; solubility (Water solubility; [7]): 1900 µg/mL (≈ 5570 µM); solubility (Water solubility; [8]): 36 µg/mL (≈ 106 µM)
2 | COc1cc2cc(C(=O)CC(C)C(=O)O)[se]c2cc1OC (stereo not drawn) [I-2, 4-(5,6-dimethoxybenzo[b]selenophene-2-yl)-2-methyl-4-oxo-butanoic acid] | *** (*** represented an agitation fold of 20 or more) | 245% | *** (*** represented an agitation fold of 20 or more) | IC50 (THP1 cells [1]; Homo sapiens, THP-1): > 100 µM; RLM @ 2 h (%) [2, 5]: >90%; logP (LogP; read-out: LogP): 2.4; hPlasma @ 24 h (%) [3, 6]: >90%; solubility (Water solubility; [7]): 1000 µg/mL (≈ 2810 µM); solubility (Water solubility; [8]): 30 µg/mL (≈ 84.4 µM)
3 | COc1cc2cc(C(=O)CC(C)C(N)=O)[se]c2cc1OC (stereo not drawn) [I-13, 4-(5,6-dimethoxybenzo[b]selenophene-2-yl)-2-methyl-4-oxo-butyramide] | * (* represented an agitation fold of 1 to 10) | 6% | * (* represented an agitation fold of 1 to 10) | 
4 | CCC(CC(=O)c1cc2cc(OC)c(OC)cc2[se]1)C(=O)O (stereo not drawn) [I-14, 4-(5,6-dimethoxybenzo[b]selenophene-2-yl)-2-ethyl-4-oxo-butanoic acid] | *** (*** represented an agitation fold of 20 or more) | 260% | *** (*** represented an agitation fold of 20 or more) | IC50 (THP1 cells [1]; Homo sapiens, THP-1): > 100 µM; RLM @ 2 h (%) [2, 5]: >90%; logP (LogP; read-out: LogP): 2.7; hPlasma @ 24 h (%) [3, 6]: >90%; solubility (Water solubility; [7]): 700 µg/mL (≈ 1900 µM); solubility (Water solubility; [8]): 28 µg/mL (≈ 75.8 µM)
5 | CC[C@H](CC(=O)c1cc2cc(OC)c(OC)cc2[se]1)C(=O)O [I-15, R-4-(5,6-dimethoxybenzo[b]selenophene-2-yl)-2-ethyl-4-oxo-butanoic acid] | *** (*** represented an agitation fold of 20 or more) | 2% | *** (*** represented an agitation fold of 20 or more) | 
6 | CC[C@@H](CC(=O)c1cc2cc(OC)c(OC)cc2[se]1)C(=O)O [I-16, S-4-(5,6-dimethoxybenzo[b]selenophene-2-yl)-2-ethyl-4-oxo-butanoic acid] | *** (*** represented an agitation fold of 20 or more) | 281% | *** (*** represented an agitation fold of 20 or more) | 
7 | COc1cc2cc(C(=O)CC(C(=O)O)C(C)C)[se]c2cc1OC (stereo not drawn) [I-17, 4-(5,6-dimethoxybenzo[b]selenophene-2-yl)-2-isopropyl-4-oxo-butanoic acid] | *** (*** represented an agitation fold of 20 or more) | 293% | ** (** represented an agitation fold of 10 to 20) | 
8 | COc1cc2cc(C(=O)CC(C(=O)O)C3CC3)[se]c2cc1OC (stereo not drawn) [I-18, 2-cyclopropyl-4-(5,6-dimethoxybenzo[b]selenophene-2-yl)-4-oxo-butanoic acid] | *** (*** represented an agitation fold of 20 or more) | 277% | ** (** represented an agitation fold of 10 to 20) | 
9 | COCC(CC(=O)c1cc2cc(OC)c(OC)cc2[se]1)C(=O)O (stereo not drawn) [I-19, 4-(5,6-dimethoxybenzo[b]selenophene-2-yl)-2-(methoxymethyl)-4-oxo-butanoic acid] | ** (** represented an agitation fold of 10 to 20) | 107% | ** (** represented an agitation fold of 10 to 20) | 
10 | CCCCC(CC(=O)c1cc2cc(OC)c(OC)cc2[se]1)C(=O)O (stereo not drawn) [I-20, 2-(2-(5,6-dimethoxybenzo[b]selenophene-2-yl)-2-oxo-ethyl) hexanoic acid] | ** (** represented an agitation fold of 10 to 20) | 132% | ** (** represented an agitation fold of 10 to 20) | 
11 | COc1cc2cc(C(=O)CCCC(=O)O)[se]c2cc1OC [I-21, 5-(5,6-dimethoxybenzo[b]selenophene-2-yl)-5-oxo-pentanoic acid] | * (* represented an agitation fold of 1 to 10) | 12% | * (* represented an agitation fold of 1 to 10) | 
12 | COc1cc2cc(C(=O)C3CC3C(=O)O)[se]c2cc1OC (stereo not drawn) [I-22] | ** (** represented an agitation fold of 10 to 20) | 115% | ** (** represented an agitation fold of 10 to 20) | 
13 | COc1cc2cc(C(=O)C3CCC3C(=O)O)[se]c2cc1OC (stereo not drawn) [I-23] | *** (*** represented an agitation fold of 20 or more) | 273% | *** (*** represented an agitation fold of 20 or more) | 
14 | COc1cc2cc(C(=O)C3CCCCC3C(=O)O)[se]c2cc1OC (stereo not drawn) [I-24] | ** (** represented an agitation fold of 10 to 20) | 142% | ** (** represented an agitation fold of 10 to 20) | 
15 | COc1cc2cc(C(=O)CCC(=O)O)sc2cc1OC [MSA2, reference compound] |  |  |  | IC50 (THP1 cells [1]): > 100 µM; RLM @ 2 h (%) ([2]; rat, microsomes, 2 h): >90%; logP (LogP): 1.5; hPlasma @ 24 h (%) [3]: >90%; water solubility, PBS (Water solubility): 400 µg/mL (≈ 1360 µM); water solubility, Water (Water solubility): 6 µg/mL (≈ 20.4 µM)
